Key:
[1] = system: HIV; conditions: HEK293T cells; ref previous study (Pribut et al. 2021); read-out: IC50 (antiviral activity, previous study); cited from earlier work
[2] = Mouse oral PK and tissue distribution, fasted state; type: in vivo; conditions: for Tmax: male, C57BL/6, mouse, lung, po, 10 mg/kg, tissue not stated; for lung AUC, fasted: overnight fast, final time point 24 h
Experimental: It is well established that oral absorption and subsequent tissue distribution of lipophilic drugs can be affected by an animal’s fed state. − Food intake serves as a stimulus for CM production in enterocytes, and therefore, variable fed states contribute to differences in prodrug absorption into the lymphatics. […] To evaluate the impact of fasting on drug absorption and distribution, we modified our protocol to include an overnight fast. This mouse PK experiment was performed as above, with the final time point extended to 24 h (instead of 18) for logistical considerations.
In accordance with the American Chemical Society Guidelines to Publication of Chemical Research, we affirm the use of standard ethical practices when housing and handling research animals, as ensured by the Emory University’s Institutional Animal Care and Use Committee (IACUC) and the Division of Animal Resources (DAR) through a rigorous protocol review, amendment, and approval process. During in vivo experiments, mice were housed in compliance with Emory University’s Division of Animal Resources (DAR) guidelines. For fasting experiments, food was removed the evening before the experiment. Mice had access to water throughout the fasting period. Food was reintroduced 4 h after oral dosing per industry standard protocols. Animals were monitored daily for signs of pain, distress, or adverse events. All procedures were conducted following protocols approved by the Institutional Animal Care and Use Committee (IACUC).
The compounds TXL, 15a, 15b, 21a, 21b, and a vehicle control were prepared at a concentration of 1 mg/mL in a 90:10 solution of olive oil (Sigma-Aldrich, cat. No. O1514) and 190-proof ethanol. The dosing for each mouse was calculated based on individual body weights to achieve a final dose of 10 mg/kg. For example, a 20 g mouse would receive 200 μL of the 1 mg/mL drug formulation, while a 25 g mouse would receive 250 μL.
In accordance with the American Chemical Society Guidelines to Publication of Chemical Research, we affirm the use of standard ethical practices when housing and handling research animals, as ensured by the Emory University’s Institutional Animal Care and Use Committee (IACUC) and the Division of Animal Resources (DAR) through a rigorous protocol review, amendment, and approval process. A total of 220 C57BL6/J male mice (aged 11–12 weeks, weight, 22–30 g) were used for these studies. Each mouse was weighed, recorded, and ear-clipped for identification. The dosing for each mouse was calculated based on individual body weights to achieve a final dose of 10 mg/kg. Animals were anesthetized using isoflurane gas before receiving a single dose of drug prepared as described above using a 22-gauge gavage needle attached to a calibrated syringe.
Time points for tissue collection were 1, 2, 4, 8, and 18 h for unfasted mice, and 1, 2, 4, 8, and 24 h for fasted mice. At each time point, the mice (n = 4 per compound per time point) were anesthetized using isoflurane and subjected to cardiac puncture for blood collection into EDTA-coated tubes. The collected blood samples were immediately placed on ice before the mice were humanely euthanized via cervical dislocation. Brain, liver, lungs, and kidneys were harvested, rinsed in PBS, and placed in prelabeled tubes. Tissues were flash-frozen in liquid nitrogen then transferred to dry ice for storage.
Tissues were weighed (∼50 mg) into homogenization tubes and ACN containing a 10 μM ITSD was added to achieve a final solvent-to-tissue ratio of 4:1. Homogenization beads were added, and the tissues were processed (Biotage Lysera, part no. 19–060) using two 20 s pulses with a 10 s interval period. Homogenate was centrifuged at maximum speed for 1 h, supernatant collected and analyzed via LC-MS using the method described previously. For plasma samples, a 50 μL aliquot was added 200 μL of ACN containing ITSD. […]

[3] = Release of parent TFV in mouse tissues after oral prodrug (fed state); conditions: 10 mg/kg oral prodrug
Text: To further evaluate the in vivo performance of 21a, we measured the release of the parent drug, TFV, in plasma (Figure a), liver (Figure b), and lung tissues collected from our PK study (fed state), and compared these levels (Figure c) with TXL.
Concentration–time profiles of parent TFV in (a) plasma and (b) liver of mice treated with either TXL or 21a (n = 3 biological replicates). (c) Summary of key TFV plasma and liver PK parameters following oral dose of TXL or 21a. Data represent the mean ± SEM.

Row | Compound | IC50 [1] | Fasted:Fed PK Ratio, liver AUC ([2]; 10 mg/kg oral) | Fasted:Fed PK Ratio, liver Cmax ([2]; 10 mg/kg oral) | Fasted:Fed PK Ratio, lung AUC ([2]; 10 mg/kg oral) | Fasted:Fed PK Ratio, lung Cmax ([2]; 10 mg/kg oral) | Fasted:Fed PK Ratio, plasma AUC ([2]; 10 mg/kg oral) | Fasted:Fed PK Ratio, plasma Cmax ([2]; 10 mg/kg oral) | decrease in lung concentration under fasted conditions ([2]; 10 mg/kg oral) | Tmax [2] | lung AUC, fasted ([2]; 10 mg/kg oral) | increase in lung AUC in fasted versus fed mice ([2]; 10 mg/kg oral) | TFV levels (Cmax and AUC) in plasma and liver relative to 21a-treated mice [3]
1 | C[C@H](Cn1cnc2c(N)ncnc21)OCP(=O)(O)OCCCOCCCCCCCCCCCCCCCC(F)(F)F [15a, Ammonium[(1R)-2-(6-aminopurin-9-yl)-1-methyl-ethoxy]methyl-[3-(16,16,16-trifluorohexadecoxy)propoxy]phosphinate] | 50 nM |  |  |  |  |  |  |  |  |  |  | 
2 | C[C@H](Cn1cnc2c(N)ncnc21)OCP(=O)(O)OC[C@H](COCCCCCCCCCCCCCCCC(F)(F)F)OCc1ccccc1 [21a, Ammonium[(1R)-2-(6-Aminopurin-9-yl)-1-methyl-ethoxy]methyl-[(2S)-2-benzyloxy-3-(16,16,16-trifluorohexadecoxy)propoxy]phosphinate] |  | 0.76 | 1.6 | 0.83 | 0.69 | 2.4 | 0.72 | 17% | 1 h | 59,900 h·ng/g |  | 
3 | CCCCCCCCCCCCCCCCOCCCOP(=O)(O)CO[C@H](C)Cn1cnc2c(N)ncnc21 [TXL, hexadecyloxypropyl (HDP)-TFV, reference compound] |  | 0.64 | 1.5 | 2.1 | 2.2 | 1.9 | 1.4 |  | 4 h | 15,600 h·ng/g | 2 fold | higher levels of TFV

From publication PMC12441861, “Next-Generation Lipid Prodrugs Orally Deliver Tenofovir via Enhanced Chylomicron Incorporation” (ACS Pharmacology & Translational Science, 2025)
